From PMC8344021, “Discovery of Small Molecule Bak Activator for Lung Cancer Therapy” (Theranostics, 2021)

What was measured:
[1] = tested on: H1299, H460 and A549 cells; experiment: Sulforhodamine B (SRB) cytotoxicity screening; format: cell-based, human; conditions: SRB assay
Source text: The BH3 death domain is known to be required for the proapoptotic function of Bak. We chose the BH3 domain binding pocket (aa75-88) of Bak (PDB ID: 2YV6) as a docking site for screening of small molecules using the UCSF DOCK 6.1 program suite and the NCI chemical library (300,000 small molecule) database as we recently described, [20], [29], [34]. Small molecules were ranked according to their energy scores. The top 500 compounds determined to have the highest affinity for the BH3 domain were obtained from the NCI and tested for cytotoxicity in human lung cancer cells (i.e. H1299, H460 and A549 cells) by sulforhodamine B (SRB) assay for further screening as described, [36]. […] We named this lead compound Bak activator BKA-073 (C19H24ClN3O2, MW: 361.87) (Figure 1A). To test the effect of BKA-073 on mitochondrial priming (∆% priming) and apoptotic cell death, human lung cancer A549 cells were treated with increasing concentrations (0, 0.25, 0.5, 0.75, 1.0 µM) of BKA-073, followed by analysis of dynamic BH3 profiling (DBP) at 16h and apoptotic cell death at 72h as described, [37]. […] In addition to lung cancer cell lines, we evaluated the efficacy of BKA-073 in other types of cancer cell lines, including breast cancer (MDA-MB-231 and MCF7), colon cancer (HCT-116), lymphoma (Ramos), multiple myeloma (OPM-1), pancreatic cancer (PANC-1) and osteosarcoma (U2OS) cell lines. […]

[2] = tested on: NSCLC and SCLC cell lines; experiment: Apoptotic cell death in panel of NSCLC and SCLC cell lines; format: cell-based, human; conditions: 1μM
Protocol: Figure 1 Discovery of small molecule BKA-073 as a lead compound that targets BH3 domain of Bak and induces mitochondrial priming and apoptosis in lung cancer cells. (A) Schematic illustration of screening strategies used to identify the lead Bak agonist BKA-073 and its chemical structure. (B) Structural modeling of BKA-073 in the BH3 domain binding pocket of Bak protein. (C) Expression levels of Bak were analyzed by Western blot in NSCLC and SCLC cell lines. (D-E) A panel of NSCLC and SCLC cell lines were treated with BKA-073 (1μM) for 16h or 72h, followed by analysis of dynamic BH3 profiling (D) or apoptotic cell death (E), respectively. Data represent the mean ± SD, n = 3 per group. **P < 0.01, ***P < 0.001, by 2-tailed t test. TEXT PRINTED IN THE PICTURE: (A) BKA-073: MW: 361.87 […]
Supplemental Materials and Methods
Small molecule NSC14073 (BKA-073) was obtained from the Drug Synthesis and Chemistry Branch, Developmental Therapeutic Program, Division of Cancer Treatment and Diagnosis, National Cancer Institute (NCI, Bethesda, MD) (http://dtp.nci.nih.gov/RequestCompounds).
Venetoclax (ABT-199, 205807) was purchased from MedKoo Biosciences (Morrisville, NC).
Antibodies including PARP (sc-8007), Bax (sc-7480), Mcl-1 (sc-12756), cytochrome c (sc-13156) and actin (sc-47778) were purchased from Santa Cruz (Santa Cruz, CA). Bcl2 antibody (05-826) was obtained from Calbiochem (Darmstadt, Germany). Bcl-XL (ab32370), Bak (ab32371) and Bax (ab104156) antibodies were purchased from Abcam (Cambridge, MA). […]
Cells were seeded at a density of 5 × 103 per well in 96-well plates and allowed to grow overnight. After treatment with BKA-073, the surviving cell fraction was determined using the sulforhodamine B (SRB) assay as described. Optical density (OD) was measured at 510nm in a microplate reader (Synergy H1, BioTek®, Winooski, VT). […]
Apoptotic cells were detected using Annexin-V Apoptosis Detection Kit (556547, BD Biosciences, San Jose, CA) according to the manufacturer’s instructions. […]

SMILES: COc1ccc2nc3ccccc3c(NCCNCC(C)O)c2c1 (stereo not shown) [BKA-073]
- cytotoxicity among top 500 docking hits [1]: most potent activity
- induction of apoptosis ([2]; 72h): potently induced
- sensitivity (mitochondrial priming and apoptosis), lines with relatively higher Bak ([2]; A549, H157, H1975, DMS53, DMS114, H209, H526): more sensitive
- sensitivity (mitochondrial priming and apoptosis), lines with relatively lower Bak ([2]; Calu-1, H69, H128, H146): less sensitive
